Source: publication PMC10247784, “Physiological activation of human and mouse bitter taste receptors by bile acids” (Communications Biology, 2023)
Several values for one entry are separate records, joined by “and”; a condition that tells them apart may be missing. Identical values can stand only once.

Biological target: T1, human TAS2R1 (Homo sapiens, UniProt Q9NYW7)
T1 construct: expressed in transfected cells; host or cells: HEK293T-Gα16gust44
T1 sequence (Q9NYW7 1-299): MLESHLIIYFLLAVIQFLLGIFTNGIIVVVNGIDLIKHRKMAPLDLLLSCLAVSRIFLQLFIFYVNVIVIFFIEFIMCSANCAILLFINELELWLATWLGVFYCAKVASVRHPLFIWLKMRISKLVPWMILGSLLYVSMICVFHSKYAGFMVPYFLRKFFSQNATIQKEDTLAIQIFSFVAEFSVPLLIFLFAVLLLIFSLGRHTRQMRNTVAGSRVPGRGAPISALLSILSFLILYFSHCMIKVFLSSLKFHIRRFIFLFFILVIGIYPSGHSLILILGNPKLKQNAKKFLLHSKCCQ
Assay: Calcium imaging assay (FLIPR), HEK293T-Gα16gust44 cells transfected with human TAS2R1
Format: cell-based
How it was run: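 Calcium responses via FLIPR in receptor-transfected HEK293T-Gα16gust44 cells (Fluo-4-AM, 2.5 mM probenecid), after mock-signal subtraction and normalization to baseline and buffer (ΔF/F). Threshold concentration is the lowest dose differing from mock cells at p < 0.01 (Student's t-test), from three biological replicates in duplicate.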

Q: `C[C@H](CCC(=O)O)[C@H]1CC[C@H]2[C@@H]3[C@@H](O)C[C@@H]4C[C@H](O)CC[C@]4(C)[C@H]3CC[C@]12C` [Ursodeoxycholic Acid, ursodeoxycholic acid] was tested. Which “Efficacy = maximal amplitude (ΔF/F)” value (TAS2R1, bile acids, mean) did it give?
A: 0.1201

Q: And the “Efficacy (maximal amplitude ΔF/F), individual data points” value (TAS2R1, bile acids, single replicates, listed as UDCA)?
A: 0.1146 and 0.1323 and 0.1134

Q: What about the RLU (Time 0 s) of the same compound?
A: 0 RLU

Q: What about the RLU (Time 2.015 s) of the same compound?
A: -1.909 RLU

Q: And the RLU (Time 4.015 s)?
A: -10.1979 RLU

Q: What about the RLU (Time 6.015 s) of the same compound?
A: -25.0303 RLU

Q: What about the RLU (Time 8.015 s) of the same compound?
A: -6.66 RLU

Q: What about the RLU (Time 12.015 s) of the same compound?
A: -0.9118 RLU

Q: And the RLU (Time 14.015 s)?
A: -27.1256 RLU

Q: What about the RLU (Time 16.015 s) of the same compound?
A: -36.3442 RLU

Q: What about the RLU (Time 18.015 s) of the same compound?
A: -16.5405 RLU

Q: What about the RLU (Time 18.796 s) of the same compound?
A: -5.241 RLU

Q: What about the RLU (Time 20.796 s) of the same compound?
A: -5.4345 RLU

Q: And the RLU (Time 22.796 s)?
A: -14.9172 RLU

Q: What about the RLU (Time 24.796 s) of the same compound?
A: 111.581 RLU

Q: And the RLU (Time 26.796 s)?
A: 220.014 RLU

Q: And the RLU (Time 28.796 s)?
A: 332.008 RLU

Q: What about the RLU (Time 30.796 s) of the same compound?
A: 471.987 RLU

Q: And the RLU (Time 32.796 s)?
A: 554.696 RLU

Q: And the RLU (Time 34.796 s)?
A: 591.628 RLU

Q: What about the RLU (Time 36.796 s) of the same compound?
A: 614.691 RLU

Q: What about the RLU (Time 38.796 s) of the same compound?
A: 661.973 RLU

Q: What about the RLU (Time 40.796 s) of the same compound?
A: 688.451 RLU

Q: And the RLU (Time 42.796 s)?
A: 682.803 RLU

Q: And the RLU (Time 44.796 s)?
A: 694.821 RLU

Q: And the RLU (Time 46.796 s)?
A: 713.853 RLU

Q: What about the RLU (Time 48.796 s) of the same compound?
A: 712.245 RLU

Q: What about the RLU (Time 50.796 s) of the same compound?
A: 701.71 RLU

Q: And the RLU (Time 52.796 s)?
A: 706.484 RLU

Q: What about the RLU (Time 54.796 s) of the same compound?
A: 693.141 RLU

Q: And the RLU (Time 56.796 s)?
A: 703.514 RLU

Q: What about the RLU (Time 58.796 s) of the same compound?
A: 690.888 RLU

Q: And the RLU (Time 60.796 s)?
A: 687.968 RLU

Q: And the RLU (Time 62.796 s)?
A: 660.683 RLU

Q: What about the RLU (Time 64.796 s) of the same compound?
A: 647.003 RLU

Q: What about the RLU (Time 66.796 s) of the same compound?
A: 672.518 RLU

Q: What about the RLU (Time 68.796 s) of the same compound?
A: 641.326 RLU

Q: And the RLU (Time 70.796 s)?
A: 644.562 RLU

Q: And the RLU (Time 72.796 s)?
A: 618.535 RLU

Q: What about the RLU (Time 74.796 s) of the same compound?
A: 611.038 RLU

Q: What about the RLU (Time 76.796 s) of the same compound?
A: 596.187 RLU

Q: What about the RLU (Time 78.796 s) of the same compound?
A: 593.169 RLU

Q: What about the RLU (Time 80.796 s) of the same compound?
A: 594.173 RLU

Q: And the RLU (Time 82.796 s)?
A: 573.074 RLU

Q: What about the RLU (Time 84.796 s) of the same compound?
A: 565.693 RLU

Q: What about the RLU (Time 86.796 s) of the same compound?
A: 545.003 RLU

Q: What about the RLU (Time 88.796 s) of the same compound?
A: 536.557 RLU

Q: What about the RLU (Time 90.796 s) of the same compound?
A: 528.103 RLU

Q: What about the RLU (Time 92.796 s) of the same compound?
A: 490.474 RLU

Q: What about the RLU (Time 94.796 s) of the same compound?
A: 507.179 RLU

Q: And the RLU (Time 96.796 s)?
A: 484.826 RLU

Q: What about the RLU (Time 98.796 s) of the same compound?
A: 487.253 RLU

Q: What about the RLU (Time 100.796 s) of the same compound?
A: 484.348 RLU

Q: And the RLU (Time 102.796 s)?
A: 464.491 RLU

Q: And the RLU (Time 104.796 s)?
A: 467.659 RLU

Q: And the RLU (Time 106.796 s)?
A: 432.725 RLU

Q: What about the RLU (Time 108.796 s) of the same compound?
A: 406.747 RLU

Q: And the RLU (Time 110.796 s)?
A: 379.699 RLU

Q: And the RLU (Time 112.796 s)?
A: 357.544 RLU

Q: What about the RLU (Time 114.796 s) of the same compound?
A: 362.533 RLU

Q: And the RLU (Time 116.796 s)?
A: 332.202 RLU

Q: What about the RLU (Time 118.796 s) of the same compound?
A: 323.517 RLU

Q: What about the RLU (Time 120.796 s) of the same compound?
A: 321.799 RLU

Q: And the RLU (Time 122.796 s)?
A: 311.834 RLU

Q: And the RLU (Time 124.796 s)?
A: 301.938 RLU

Q: And the RLU (Time 126.796 s)?
A: 306.062 RLU

Q: And the RLU (Time 128.796 s)?
A: 271.359 RLU

Q: And the RLU (Time 130.796 s)?
A: 275.474 RLU

Q: What about the RLU (Time 132.796 s) of the same compound?
A: 247.428 RLU

Q: What about the RLU (Time 134.796 s) of the same compound?
A: 253.899 RLU

Q: What about the RLU (Time 136.796 s) of the same compound?
A: 243.041 RLU

Q: And the RLU (Time 137.562 s)?
A: 220.326 RLU

Q: And the RLU (Time 143.562 s)?
A: 203.668 RLU

Q: What about the RLU (Time 149.562 s) of the same compound?
A: 176.37 RLU

Q: And the RLU (Time 155.562 s)?
A: 166.486 RLU

Q: And the RLU (Time 161.562 s)?
A: 168.826 RLU

Q: And the RLU (Time 167.562 s)?
A: 116.188 RLU

Q: And the RLU (Time 173.562 s)?
A: 124.68 RLU

Q: What about the RLU (Time 179.562 s) of the same compound?
A: 97.5703 RLU

Q: What about the RLU (Time 185.562 s) of the same compound?
A: 83.8515 RLU

Q: And the RLU (Time 191.562 s)?
A: 81.5894 RLU

Q: What about the RLU (Time 197.562 s) of the same compound?
A: 63.0668 RLU

Q: What about the RLU (Time 203.562 s) of the same compound?
A: 46.8203 RLU

Q: And the RLU (Time 209.562 s)?
A: 23.6957 RLU

Q: What about the RLU (Time 215.562 s) of the same compound?
A: 20.9611 RLU

Q: What about the RLU (Time 221.562 s) of the same compound?
A: 21.314 RLU

Q: What about the RLU (Time 227.562 s) of the same compound?
A: 32.3726 RLU

Q: What about the RLU (Time 233.562 s) of the same compound?
A: 4.71 RLU

Q: And the RLU (Time 239.562 s)?
A: 3.353 RLU

Q: And the RLU (Time 245.562 s)?
A: -15.0975 RLU

Q: And the RLU (Time 293.562 s)?
A: -21.0295 RLU

Q: And the RLU (Time 299.562 s)?
A: -10.1171 RLU

Q: What about the RLU (calcium trace, sheet TAS2R1, Time 305.562 s) of the same compound?
A: -21.932 RLU

Q: And the RLU (calcium trace, sheet TAS2R1, Time 311.562 s)?
A: -35.6948 RLU

Q: What about the RLU (calcium trace, sheet TAS2R1, Time 317.562 s) of the same compound?
A: -15.7818 RLU

Q: And the RLU (calcium trace, sheet TAS2R1, Time 323.562 s)?
A: -21.7457 RLU

Q: What about the RLU (calcium trace, sheet TAS2R1, Time 329.562 s) of the same compound?
A: -25.1818 RLU

Q: What about the RLU (calcium trace, sheet TAS2R1, Time 335.562 s) of the same compound?
A: -20.2182 RLU

Q: And the RLU (calcium trace, sheet TAS2R1, Time 341.562 s)?
A: 10.616 RLU

Q: What about the RLU (calcium trace, sheet TAS2R1, Time 347.562 s) of the same compound?
A: -20.1556 RLU

Q: What about the RLU (calcium trace, sheet TAS2R1, Time 353.562 s) of the same compound?
A: -12.0438 RLU

Q: And the RLU (calcium trace, sheet TAS2R1, Time 359.562 s)?
A: -31.063 RLU

Q: And the “Δ F/F” value (conc. 0,01 mM, TAS2R1)?
A: 0.05863

Q: What about the “Δ F/F” value (conc. 0,03 mM, TAS2R1) of the same compound?
A: 0.1201

Q: What about the “Δ F/F” value (conc. 0,0001 mM, TAS2R1) of the same compound?
A: -0.003399

Q: What about the “Δ F/F” value (conc. 0,0003 mM, TAS2R1) of the same compound?
A: 0.009061

Q: What about the “Δ F/F” value (conc. 0,001 mM, TAS2R1) of the same compound?
A: 0.007937

Q: And the “Δ F/F” value (conc. 0,003 mM, TAS2R1)?
A: 0.01609

Q: What about the “Activation threshold concentration TAS2R1” value (lowest concentration with significantly increased fluorescence vs empty vector (p < 0.01)) of the same compound?
A: 3 µM and 3.00 µM
